Test results reported in patent publication US8324264B1, “Inhibitors of bacterial biofilms and related methods” (Sequoia Sciences, Inc., priority 2011, dated 2012).
Structures can show the parent of a compound that is named as a salt.

Row | SMILES | melting point
1 | CC1(C)CC[C@]2(C(=O)n3ccnc3N)CC[C@]3(C)C(=CCC4[C@@]5(C)Cc6c(n[nH]c6N)C(C)(C)C5CC[C@]43C)C2C1 (stereo partly drawn) (as salt: ammonium) [Compound 73, (2-Amino-1H-imidazol-1-yl)((4aS,6aS,6bR,13aR)-12-amino-2,2,6a,6b,9,9,13a-heptamethyl-2,3,4,4a,5,6,6a,6b,7,8,8a,9,11,13,13a,13b,14,15b-octadecahydro-1H-chryseno[1,2-f]indazol-4-a-yl)methanone] | 230 to 250 °C (dec.)
2 | C[C@@H]1c2n[nH]c(N)c2C[C@]2(C)C3CC=C4[C@@H]5CC(C)(C)CC[C@]5(C(=O)O)CC[C@@]4(C)[C@]3(C)CC[C@@H]12 (stereo partly drawn) (as salt: ammonium) [Example 3, (4aS,6aS,6bR,8aS,9S,13aS,15bS)-12-Amino-2,2,6a,6b,9,13a-hexamethyl-2,3,4,4a,5,6,6a,6b,7,8,8a,9,11,13,13a,13b,14,15b-octadecahydro-1H-chryseno[1,2-f]indazole-4-a-carboxylic acid] | > 300 °C
3 | CC1(C)CC[C@]2(C(=O)n3cnc(S)n3)CC[C@]3(C)C(=CCC4[C@@]5(C)Cc6c(n[nH]c6N)C(C)(C)C5CC[C@]43C)C2C1 (stereo partly drawn) (as salt: ammonium) [Compound 76, ((4aS,6aS,6bR,13aR)-12-Amino-2,2,6a,6b,9,9,13a-heptamethyl-2,3,4,4a,5,6,6a,6b,7,8,8a,9,11,13,13a,13b,14,15b-octadecahydro-1H-chryseno[1,2-f]indazol-4-a-yl)(3-mercapto-1H-1,2,4-triazol-1-yl)methanone] | 260 to 280 °C (dec.)
4 | CCC1=C2[C@@H]3CC(C)(C)CC[C@]3(C(=O)O)CC[C@@]2(C)[C@]2(C)CC[C@H]3C(C)(C)c4n[nH]c(N)c4C[C@]3(C)C2C1 (stereo partly drawn) (as salt: ammonium) [Example 14, (4aS,6aS,6bR,8aR,13aR,15bS)-12-Amino-15-ethyl-2,2,6a,6b,9,9,13a-heptamethyl-2,3,4,4a,5,6,6a,6b,7,8,8a,9,11,13,13a,13b,14,15b-octadecahydro-1H-chryseno[1,2-f]indazole-4-a-carboxylic acid] | > 300 °C
5 | CN(C)c1ccc(C2=C3[C@@H]4CC(C)(C)CC[C@]4(C(=O)O)CC[C@@]3(C)[C@]3(C)CC[C@H]4C(C)(C)c5n[nH]c(N)c5C[C@]4(C)C3C2)cc1 (stereo partly drawn) (as salt: ammonium) [Example 10, (4aS,6aS,6bR,13aR)-12-Amino-15-(4-(dimethylamino)phenyl)-2,2,6a,6b,9,9,13a-heptamethyl-2,3,4,4a,5,6,6a,6b,7,8,8a,9,11,13,13a,13b,14,15b-octadecahydro-1H-chryseno[1,2-f]indazole-4-a-carboxylic acid] | > 300 °C
6 | CC1(C)CC[C@]2(C(=O)Nc3cc(O)[nH]n3)CC[C@]3(C)C(=CCC4[C@@]5(C)Cc6c(n[nH]c6N)C(C)(C)C5CC[C@]43C)C2C1 (stereo partly drawn) (as salt: ammonium) [Compound 66, (4aS,6aS,6bR,13aR)-12-Amino-N-(5-hydroxy-1H-pyrazol-3-yl)-2,2,6a,6b,9,9,13a-heptamethyl-2,3,4,4a,5,6,6a,6b,7,8,8a,9,11,13,13a,13b,14,15b-octadecahydro-1H-chryseno[1,2-f]indazole-4-a-carboxamide] | 275 to 295 °C (dec.)
7 | Cc1nnc(S)n1NC(=O)[C@]12CCC(C)(C)CC1C1=CCC3[C@@]4(C)Cc5c(n[nH]c5N)C(C)(C)C4CC[C@@]3(C)[C@]1(C)CC2 (stereo partly drawn) (as salt: ammonium) [Compound 77, (4aS,6aS,6bR,13aR)-12-Amino-N-(3-mercapto-5-methyl-4H-1,2,4-triazol-4-yl)-2,2,6a,6b,9,9,13a-heptamethyl-2,3,4,4a,5,6,6a,6b,7,8,8a,9,11,13,13a,13b,14,15b-octadecahydro-1H-chryseno[1,2-f]indazole-4-a-carboxamide] | 250 to 270 °C (dec.)
8 | CC1(C)CC[C@]2(C(=O)O)CC[C@]3(C)C(=C(c4ccccc4N)CC4[C@@]5(C)Cc6c(n[nH]c6N)C(C)(C)C5CC[C@]43C)C2C1 (stereo partly drawn) (as salt: ammonium) [Example 23, (4aS,6aS,6bR,13aR)-12-Amino-15-(2-aminophenyl)-2,2,6a,6b,9,9,13a-heptamethyl-2,3,4,4a,5,6,6a,6b,7,8,8a,9,11,13,13a,13b,14,15b-octadecahydro-1H-chryseno[1,2-f]indazole-4-a-carboxylic acid] | 210 to 230 °C (dec.)
9 | CC1(C)CC[C@]2(C(=O)O)CC[C@]3(C)C(=C(c4ccco4)CC4[C@@]5(C)Cc6c(n[nH]c6N)C(C)(C)[C@@H]5CC[C@]43C)[C@@H]2C1 (stereo partly drawn) (as salt: ammonium) [Example 7, (4aS,6aS,6bR,13aR)-12-Amino-15-(furan-2-yl)-2,2,6a,6b,9,9,13a-heptamethyl-2,3,4,4a,5,6,6a,6b,7,8,8a,9,11,13,13a,13b,14,15b-octadecahydro-1H-chryseno[1,2-f]indazole-4-a-carboxylic acid] | 250 to 270 °C (dec.)
10 | CC1(C)CC[C@]2(C(=O)O)CC[C@]3(C)C(=C(c4cccc(O)c4)CC4[C@@]5(C)Cc6c(n[nH]c6N)C(C)(C)C5CC[C@]43C)C2C1 (stereo partly drawn) (as salt: ammonium) [Example 16, (4aS,6aS,6bR,13aR)-12-Amino-15-(3-hydroxyphenyl)-2,2,6a,6b,9,9,13a-heptamethyl-2,3,4,4a,5,6,6a,6b,7,8,8a,9,11,13,13a,13b,14,15b-octadecahydro-1H-chryseno[1,2-f]indazole-4-a-carboxylic acid] | 260 to 280 °C (dec.)
11 | CC1(C)CC[C@]2(C(=O)Nc3nnc(S)s3)CC[C@]3(C)C(=CCC4[C@@]5(C)Cc6c(n[nH]c6N)C(C)(C)C5CC[C@]43C)C2C1 (stereo partly drawn) (as salt: ammonium) [Compound 74, (4aS,6aS,6bR,13aR)-12-Amino-N-(5-mercapto-1,3,4-thiadiazol-2-yl)-2,2,6a,6b,9,9,13a-heptamethyl-2,3,4,4a,5,6,6a,6b,7,8,8a,9,11,13,13a,13b,14,15b-octadecahydro-1H-chryseno[1,2-f]indazole-4-a-carboxamide] | > 300 °C
12 | CC1=C2[C@@H]3CC(C)(C)CC[C@]3(C(=O)O)CC[C@@]2(C)[C@]2(C)CC[C@H]3C(C)(C)c4n[nH]c(N)c4C[C@]3(C)C2C1 (stereo partly drawn) (as salt: ammonium) [Example 4, (4aS,6aS,6bR,8aR,13aR,15bS)-12-Amino-2,2,6a,6b,9,9,13a,15-octamethyl-2,3,4,4a,5,6,6a,6b,7,8,8a,9,11,13,13a,13b,14,15b-octadecahydro-1H-chryseno[1,2-f]indazole-4-a-carboxylic acid] | > 300 °C
13 | CC1(C)CC[C@]2(c3n[nH]c(O)c3N3CCOCC3)CC[C@]3(C)C(=CCC4[C@@]5(C)Cc6c(n[nH]c6N)C(C)(C)[C@@H]5CC[C@]43C)[C@@H]2C1 (stereo partly drawn) (as salt: ammonium) [Compound 88, 3-((4aS,6aS,6bR,13aR)-12-Amino-2,2,6a,6b,9,9,13a-heptamethyl-2,3,4,4a,5,6,6a,6b,7,8,8a,9,11,13,13a,13b,14,15b-octadecahydro-1H-chryseno[1,2-f]indazol-4-a-yl)-4-morpholino-1H-pyrazol-5-ol] | > 300 °C
14 | CC1(C)CC[C@]2(c3n[nH]c(O)c3CCN)CC[C@]3(C)C(=CCC4[C@@]5(C)Cc6c(n[nH]c6N)C(C)(C)[C@@H]5CC[C@]43C)[C@@H]2C1 (stereo partly drawn) (as salt: ammonium) [Compound 84, 3-((4aS,6aS,6bR,13aR)-12-Amino-2,2,6a,6b,9,9,13a-heptamethyl-2,3,4,4a,5,6,6a,6b,7,8,8a,9,11,13,13a,13b,14,15b-octadecahydro-1H-chryseno[1,2-f]indazol-4-a-yl)-4-(2-aminoethyl)-1H-pyrazol-5-ol] | 250 to 260 °C (dec.)
